By pKi is commonly meant the Ki on a negative log10 scale, so that one unit is a factor of ten. The pIC50 is the IC50 on a negative log10 scale, so that one unit is a factor of ten.

One test concerns CD-1 mice. Kind of test: Formalin test in mice. It counts as in vivo. The following applies: 3 mg/kg, i.p., 20 min before formalin; n=5. The method, then: Formalin test in mice. Male CD-1 mice 6-8 weeks (Envigo, Italy), were housed under controlled conditions (12 h light/12 h dark cycle; temperature 20-22 C; humidity 55-60%) with chow and tap water available ad libitum. All surgeries and experimental procedures were approved by the Animal Ethics Committee of University of Campania “L. Vanvitelli” (Naples). Animal care was in compliance with Italian (D.L. 116/92) and European Commission (O.J. of E.C. L358/1 18/12/86) regulations on the protection of laboratory animals. All efforts were made to minimize animal suffering and to reduce the number of animals used. All the experiments were performed in a randomized manner by the same operator blind to pharmacological treatments. Mice weighing 28-32 g were used after 1 week-acclimation period and received formalin (1.25% in saline, 30 μL) in the dorsal surface of one side of the hind-paw. Each mouse, randomly assigned to one of the experimental groups (n=5), was placed in a plexiglass cage and allowed to move freely for 15-20 min. A mirror was placed at a 45° angle under the cage to allow full view of the hind-paws. Lifting, favoring, licking, shaking and flinching of the injected paw were recorded as nocifensive behavior.^61 The total time of the nociceptive response was measured every 5 min for 60 minutes and expressed in min (mean±SEM). Mice received vehicle (0.5% DMSO in saline) or different doses of Δ^9-THCB (2, 3 and 5 mg/kg, i.p.) 20 min before formalin injection alone or in combination with AM251 (0.5 mg/kg, i.p.) or AM630 (1 mg/kg, i.p.). The antagonists were administered 10 min before drugs injection.
Statistics for in vivo experiments. Data are represented as means±standard error of the mean (S.E.M). Statistical analysis of the data was performed by analysis of variance two-way ANOVA followed by Bonferroni post hoc or Dunnett's multiple comparison test. All statistical analyses were performed by using GraphPAD software (San Diego, California). Differences were considered significant at p<0.05.

Test [1] deals with C57BL6/J mice. Kind of test: Tetrad test, overall cannabimimetic profile. Conditions: i.p. It counts as in vivo. The method, then: Tetrad test. Male C57BL6/J mice 6-8 weeks (Envigo, Italy) were housed under controlled conditions (12 h light/12 h dark cycle; temperature 20-22 C; humidity 55-60%) with chow and tap water available ad libitum. All surgeries and experimental procedures were approved by the Animal Ethics Committee of University of Campania “L. Vanvitelli,” Naples. Animal care was in compliance with Italian (D.L. 116/92) and European Commission (O.J. of E.C. L358/1 […]) regulations on the protection of laboratory animals. All efforts were made to minimize animal suffering and to reduce the number of animals used. All the experiments were performed in a randomized manner by the same operator blind to pharmacological treatments.
(§1) Mice (n=4) were treated with Δ^9-THCB (10 and 20 mg/kg) or vehicle (0.9% saline and 0.05% DMSO) by intraperitoneal (i.p.) administration. Mice were evaluated for hypomotility (open field test), hypothermia (body temperature test), antinociceptive (hot plate test), and cataleptic effects (bar test), using the tetrad tests as described in the protocol by Metna-Laurent M. et al.^62 Statistical analysis was performed using the Kruskall-Wallis test and Dunn's post hoc tests.
(§2) Male C57BL6/J mice (7 weeks old; n=5) were treated with Δ^9-THCP (10, 5 and 2.5 mg/kg) or vehicle (1:1:18; ethanol:Kolliphor EL:0.9% saline) by i.p. administration. Mice were evaluated for hypomotility (open field test), hypothermia (body temperature), antinociceptive (hot plate test), and cataleptic (bar test) effects, using the tetrad tests^58. Statistical analysis was performed using the Kruskall-Wallis test and Dunn's post hoc tests.

Test [2] relates to C57BL6/J mice. Kind of test: Tetrad: hot plate test (analgesia). It counts as in vivo. The following applies: 52° C., 85 min after administration, mean±SEM. The method, then: as §1
Hotplate test. Each mouse was placed on a hot plate (Ugo Basile), which was kept at a constant temperature of 52° C. The nociceptive response (NR) was recorded as characteristic actions of the mouse like licking of the hind paws, as well as jumping. The latency to the NR was measured in sec 85 minutes after drug or vehicle administration. A 30 or 60 sec cut-off time was used in order to prevent tissue damage.
as §2
Hot plate. Changes in nociception were evaluated by the hot plate test. On the day of experiment each mouse was placed on a hot plate (Ugo Basiele) at a constant temperature of 52° C. Licking of the hind paws, as well as jumping, were considered as a nociceptive response (NR) and the latency was measured in seconds 85 minutes after drug or vehicle administration. The latency to the NR was recorded and a 30 or 60 s cut-off time was used in order to prevent tissue damage.
For orientation: Thermal pain tests record how soon the animal reacts.

In another test the target is T1, human CB2 receptor (Homo sapiens, UniProt P34972).
T1 construct: Eurofins Discovery (contract assay)
T1 sequence (P34972 whole entry): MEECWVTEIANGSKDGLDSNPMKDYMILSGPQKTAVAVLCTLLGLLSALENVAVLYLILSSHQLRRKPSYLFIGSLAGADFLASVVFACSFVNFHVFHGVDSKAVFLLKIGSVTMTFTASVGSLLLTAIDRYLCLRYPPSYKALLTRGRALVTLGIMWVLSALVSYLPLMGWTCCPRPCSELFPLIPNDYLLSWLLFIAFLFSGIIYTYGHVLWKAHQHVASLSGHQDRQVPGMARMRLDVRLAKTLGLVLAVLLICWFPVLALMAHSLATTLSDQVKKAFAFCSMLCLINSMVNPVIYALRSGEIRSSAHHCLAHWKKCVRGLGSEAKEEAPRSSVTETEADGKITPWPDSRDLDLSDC
Kind of test: Radioligand binding assay at human CB2 receptor ([^3H]WIN 55212-2 displacement, Eurofins Discovery). The method, then:
2.2.4 Binding affinity at human CB1 and CB2 receptors. The binding affinity of (−)-trans-Δ^9-THCB against purified human CB1 and CB2 receptors was determined in a radioligand binding assay. The capability of the ligand to displace radiolabeled [^3H]
Binding at CB1 and CB2 Receptors. The binding affinity of (−)-trans-Δ^9-THCB against human CB1 and CB2 receptors was determined in a radioligand binding assay performed by Eurofins Discovery. The compound was tested at ten concentrations, ranging from 1 nM to 30 μM, in duplicate. The compound binding was calculated as a % inhibition of the binding of a radioactively labeled ligand specific for each target. […] The results were expressed as a percent inhibition of control specific binding obtained in the presence of the tested compounds using eq. 1.
The IC50 values (concentration causing a half-maximal inhibition of control specific binding) were determined by non-linear regression analysis of the competition curves generated with mean replicate values (eq. 2)^55.
Where Y is the specific binding, A is the left asymptote of the curve, D is the right asymptote f the curve, C is the compound concentration, C50 is the IC50 value and nH is the slope factor. […] The inhibition constants (Ki) were calculated using the Cheng Prusoff equation: […]
3.1.4 Binding affinity at human CB1 and CB2 receptors. […] The binding affinity of (−)-trans-Δ^9-THCP against human CB1 and CB2 receptors was assessed by Eurofins Discovery using a radioligand binding assay. […] Eq. 1 was employed to calculate the percent inhibition of control specific binding obtained in the presence of the tested compounds. […]
Where Y is the specific binding, A is the left asymptote of the curve, D is the right asymptote f the curve, C is the compound concentration, C50 is the IC50 value and nH is the slope factor. […] The inhibition constants (Ki) were determined using the Cheng Prusoff equation (eq. 3): […]

pIC50, pKi: −log10 of the molar value. “Also recorded” adds a separate entry of the source. Like-named read-outs stand apart in the source and are kept apart here.

On to `CCCCc1cc(O)c2c(c1)OC(C)(C)[C@@H]1CCC(C)=C[C@@H]21` [Δ^9-THCB, (6aR,10aR)-3-butyl-6,6,9-trimethyl-6a,7,8,10a-tetrahydro-6H-benzo[c]chromen-1-ol], for which the “nociceptive response in formalin test (first phase 0-7 min, second phase 15-60 min)” value in the test with CD-1 mice is “reduced both first and second phase of formalin test”. Moreover, the “cannabimimetic profile in the tetrad test (in words)” value in the test with C57BL6/J mice [1] is recorded as “partial agonistic activity; also recorded: partial agonist for CB1 receptor”. In addition, the “hot plate: latency to nociceptive response” value stood at 7.94 s with C57BL6/J mice [2] (Δ^9-THCB 10 mg/kg i.p., n=4, vehicle 10.15) and 17.50 s in the test with C57BL6/J mice [2] (Δ^9-THCB 20 mg/kg i.p., n=4, vehicle 10.15). The pKi at human CB2 receptor (Cheng Prusoff from IC50, [^3H]WIN 55212-2 radioligand, read-out: hCB2 Ki) was 7.29. On human CB2 receptor (displacement of [^3H]WIN 55212-2, ten concentrations 1 nM to 30 μM, duplicate, SD within ±10%, read-out: hCB2 IC50), the pIC50 was 7.10.

`CCCCCCCc1cc(O)c2c(c1)OC(C)(C)[C@@H]1CCC(C)=C[C@@H]21` [Δ^9-THCP, (6aR,10aR)-3-heptyl-6,6,9-trimethyl-6a,7,8,10a-tetrahydro-6H-benzo[c]chromen-1-ol]: the “cannabimimetic profile in the tetrad test (in words)” value in the test on C57BL6/J mice [1] is given as “THC-like cannabimimetic activity; also recorded: miming the properties of full CB1 receptor agonists”. Besides, the “dose at which active in three of the four tetrad tests” value in the test with C57BL6/J mice [1] is listed as 5 mg/kg. Further, the “hot plate: latency to nociceptive response” value worked out at 40.22 s in the test with C57BL6/J mice [2] (Δ^9-THCP 2.5 mg/kg i.p., not statistically significant, n=5, vehicle 19.20); 54.38 s in the test on C57BL6/J mice [2] (Δ^9-THCP 5 mg/kg i.p., n=5, vehicle 19.20); 57.0 s in the test with C57BL6/J mice [2] (Δ^9-THCP 10 mg/kg i.p., n=5, vehicle 19.20). The molecule also gave a pKi on human CB2 receptor of 8.21.

(Values after patent US12606508B2, “Cannabis extracts and uses thereof” (priority 2020, dated 2026).)
